Test systems include SK-OV-3; KM12; M14; OVCAR-5; DU-145; CAKI-1; HT-29; MOLT-4; K562; HCT-15; HCT-116; ACHN; NCI-H23; CCRF-CEM; UACC-257; HOP-62; SF-539; TK-10; T47D; LOX IMVI.
What all share (experiment): growth of human tumour cells (NCI), 48 h

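These data come from cells grown in 96-well plates and exposed to compound for 48 hours at five concentrations. GI50 = concentration required for 50% inhibition of growth.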 Calls of active or inactive are those of the source. Cut-off read from the data, not from the text of the source: active = GI50 up to about 1.1 µM and inactive = higher.

On to `N#CCCN(CCC#N)c1ccc(C(=N/c2ccc(Cl)cc2)/N=N/c2ccc(Cl)cc2)cc1`, for which the GI50 was 33 µM (inactive) with SK-OV-3; 13.6 µM (inactive) in the assay on KM12; 21.5 µM (inactive) with M14; 17.2 µM (inactive) with OVCAR-5; 15.5 µM (inactive) in the assay on DU-145; 16.4 µM (inactive) in the assay on CAKI-1. Besides, the GI50 in the assay on HT-29 was 19.8 µM (inactive); in the assay with MOLT-4, 22.5 µM (inactive); in the assay on K562, 32.5 µM (inactive); with HCT-15 it was 10.7 µM; in the assay on HCT-116 it was 19 µM (inactive); with ACHN, 18.2 µM (inactive). Further, the GI50 was 17.5 µM (inactive) with NCI-H23; 35.2 µM (inactive) with CCRF-CEM; 15 µM (inactive) in the assay on UACC-257; 21.7 µM (inactive) with HOP-62; 17.8 µM (inactive) in the assay on SF-539; 18.5 µM (inactive) in the assay on TK-10. Moreover, the GI50 in the assay with T47D is 7.6 µM (inactive).

For the compound `CC(=O)C1=C(C)NC(=C(C#N)C#N)C(C#N)=C1`, the GI50 in the assay on KM12, in the assay with M14, with OVCAR-5, with DU-145, in the assay with CAKI-1 and with HT-29 was > 100 µM (inactive) throughout. Also, the GI50 in the assay on MOLT-4 was > 100 µM (inactive); with LOX IMVI, > 100 µM (inactive); in the assay with K562, > 100 µM (inactive); with HCT-15, > 100 µM; with HCT-116, > 100 µM (inactive); in the assay on ACHN it was > 100 µM (inactive). In addition, the GI50 with NCI-H23, in the assay with CCRF-CEM, with HOP-62, in the assay on SF-539 and in the assay with T47D was > 100 µM (inactive) each time.

In the case of `Nc1ncnc2c1cnn2Cc1ccc(Cl)cc1`, the GI50 in the assay on KM12, with M14, in the assay with DU-145, in the assay with HT-29, in the assay on MOLT-4 and with LOX IMVI was > 100 µM (inactive) throughout. For the same compound, the GI50 in the assay on K562 was > 100 µM (inactive); with HCT-15, > 100 µM; in the assay on HCT-116, > 100 µM (inactive); in the assay on ACHN it was > 100 µM (inactive); in the assay with NCI-H23, > 100 µM (inactive); with CCRF-CEM, > 100 µM (inactive). The GI50 with UACC-257, in the assay on TK-10 and with T47D was > 100 µM (inactive) each time.

`O=C(C#Cc1ccccc1)C1=Cc2ccccc2OC1`: the GI50 was 15 µM (inactive) in the assay on SK-OV-3; 4.25 µM (inactive) in the assay with KM12; 3.01 µM (inactive) with M14; 2.99 µM (inactive) in the assay on OVCAR-5; 5.53 µM (inactive) in the assay with DU-145; 1.88 µM (inactive) with CAKI-1. The GI50 in the assay on HT-29 was 2.11 µM (inactive); in the assay with MOLT-4, 3.33 µM (inactive); with LOX IMVI it was 0.783 µM (active); in the assay with K562, 2.61 µM (inactive); in the assay on HCT-15, 2.37 µM; with HCT-116, 1.92 µM (inactive). Besides, the GI50 in the assay on ACHN is 2.17 µM (inactive); in the assay with NCI-H23, 2.14 µM (inactive); in the assay on CCRF-CEM it was 0.198 µM (active); in the assay with UACC-257, 2.7 µM (inactive); in the assay on HOP-62, 13.6 µM (inactive); with SF-539, 1.93 µM (inactive). Besides, the GI50 is 1.9 µM (inactive) in the assay on TK-10 and 3.26 µM (inactive) in the assay with T47D.

As to `Cc1ccc(-c2n[nH]c(=O)n2/N=C\c2ccccc2)cc1`, the GI50 with KM12 was 54 µM (inactive); in the assay on M14 it was > 93.1 µM (inactive); in the assay with OVCAR-5 it was > 100 µM (inactive); with DU-145 it was > 94.2 µM (inactive); in the assay with CAKI-1, 57.9 µM (inactive); in the assay with HT-29, > 91 µM (inactive). The GI50 with MOLT-4 was > 79.6 µM (inactive); in the assay with LOX IMVI it was > 100 µM (inactive); with K562, > 76.2 µM (inactive); in the assay on HCT-15, 72.6 µM; with HCT-116, 37.5 µM (inactive); in the assay with ACHN it was 50.6 µM (inactive). Moreover, the GI50 in the assay with NCI-H23 was 68.9 µM (inactive); in the assay on CCRF-CEM, > 80.9 µM (inactive); with UACC-257, > 100 µM (inactive); with HOP-62, 22.6 µM (inactive); with SF-539 it was 76.2 µM (inactive); in the assay with TK-10, > 59.2 µM (inactive). Besides, the GI50 in the assay with T47D was 36.6 µM (inactive).

On to `O=S(=O)(N=S(c1ccccc1)c1ccccc1)c1ccccc1`, for which the GI50 in the assay on KM12, in the assay on M14, with OVCAR-5, in the assay with DU-145, with HT-29 and with MOLT-4 was > 100 µM (inactive) in each case. In addition, the GI50 is > 100 µM (inactive) in the assay on K562; > 100 µM in the assay with HCT-15; > 100 µM (inactive) in the assay on HCT-116; > 100 µM (inactive) with ACHN; > 100 µM (inactive) in the assay with NCI-H23; > 100 µM (inactive) in the assay with CCRF-CEM. Also, the GI50 in the assay with UACC-257, with HOP-62, in the assay with SF-539, with TK-10 and with T47D was > 100 µM (inactive) throughout.

For the compound `Cc1ccn2c(=O)cc(-c3ccccc3)nc2c1`, the GI50 with SK-OV-3 is > 100 µM (inactive); in the assay with KM12 it was 68.9 µM (inactive); in the assay with M14, > 100 µM (inactive); in the assay with OVCAR-5, > 100 µM (inactive); in the assay on DU-145, > 100 µM (inactive); in the assay with HT-29, > 100 µM (inactive). In addition, the GI50 with MOLT-4 was > 100 µM (inactive); in the assay on K562, > 100 µM (inactive); with HCT-15, > 100 µM; with HCT-116, > 100 µM (inactive); in the assay on ACHN it was 71.1 µM (inactive); with NCI-H23, > 100 µM (inactive). The GI50 is > 100 µM (inactive) with CCRF-CEM; > 100 µM (inactive) with UACC-257; > 100 µM (inactive) in the assay with HOP-62; > 100 µM (inactive) in the assay on SF-539; > 100 µM (inactive) with TK-10; 49.7 µM (inactive) in the assay on T47D.

Regarding `COCOc1cc(OC)c(Br)cc1C/C(=N/O)C(=O)OC`, the GI50 is > 100 µM (inactive) in the assay with SK-OV-3; > 100 µM (inactive) in the assay with KM12; > 100 µM (inactive) with M14; > 100 µM (inactive) in the assay with OVCAR-5; > 100 µM (inactive) in the assay with DU-145; 48.8 µM (inactive) in the assay with CAKI-1. Besides, the GI50 with HT-29 was > 100 µM (inactive); in the assay on MOLT-4 it was 27.5 µM (inactive); in the assay with LOX IMVI, 73.5 µM (inactive); in the assay on K562 it was 49.7 µM (inactive); in the assay on HCT-15 it was > 100 µM; in the assay on HCT-116 it was > 100 µM (inactive). Besides, the GI50 is > 100 µM (inactive) in the assay with ACHN; 90.4 µM (inactive) with NCI-H23; 37.8 µM (inactive) in the assay on CCRF-CEM; 46.6 µM (inactive) in the assay on UACC-257; 67.3 µM (inactive) in the assay on HOP-62; > 100 µM (inactive) in the assay on SF-539. Also, the GI50 is 35.1 µM (inactive) in the assay on TK-10 and 15.8 µM (inactive) in the assay on T47D.

As for `O=C1Nc2ccccc2[C@]12C[C@H]2c1ccccn1`, the GI50 with SK-OV-3, in the assay with KM12, in the assay with M14, in the assay on OVCAR-5, in the assay on DU-145 and in the assay on CAKI-1 was > 100 µM (inactive) in each case. The GI50 with MOLT-4 is > 100 µM (inactive); with LOX IMVI, > 100 µM (inactive); in the assay with K562, > 100 µM (inactive); with HCT-15, > 100 µM; in the assay on HCT-116, > 100 µM (inactive); with ACHN it was > 100 µM (inactive). Moreover, the GI50 with NCI-H23, with CCRF-CEM, with UACC-257, in the assay with HOP-62, in the assay on SF-539 and in the assay on TK-10 was > 100 µM (inactive) in each case. Also, the GI50 with T47D is > 100 µM (inactive).

Consider `O=C1CCC2=C(CCC2)N1CCc1ccc2c(c1)OCO2`, for which the GI50 with SK-OV-3 was > 100 µM (inactive); with KM12 it was 62.4 µM (inactive); with M14 it was 92.9 µM (inactive); in the assay with OVCAR-5, 42.6 µM (inactive); in the assay with DU-145, > 100 µM (inactive); in the assay with CAKI-1, 81.8 µM (inactive). Moreover, the GI50 is 92 µM (inactive) in the assay with HT-29; 15.4 µM (inactive) in the assay on MOLT-4; 59.6 µM (inactive) with LOX IMVI; 25.7 µM (inactive) in the assay on K562; 43.1 µM in the assay with HCT-15; 48.2 µM (inactive) in the assay on HCT-116. In addition, the GI50 in the assay on ACHN was 77.3 µM (inactive); in the assay on NCI-H23 it was 38 µM (inactive); in the assay with CCRF-CEM it was 29.2 µM (inactive); in the assay on UACC-257 it was 84.9 µM (inactive); in the assay on HOP-62, 94.6 µM (inactive); in the assay with SF-539 it was > 100 µM (inactive). The values for the GI50 with TK-10 and in the assay with T47D were 76.9 µM (inactive) and 37 µM (inactive), respectively.

In the case of `O=C(O)c1ccccc1CN1CCCC(C(=O)O)C1` (stereo not drawn), the GI50 in the assay with SK-OV-3, in the assay on KM12, with M14, with OVCAR-5, with DU-145 and with CAKI-1 was > 100 µM (inactive) in each case. Besides, the GI50 is > 100 µM (inactive) with HT-29; > 100 µM (inactive) in the assay on MOLT-4; > 100 µM (inactive) with LOX IMVI; > 100 µM (inactive) in the assay on K562; > 100 µM in the assay with HCT-15; > 100 µM (inactive) in the assay with HCT-116. For the same compound, the GI50 in the assay on ACHN, with NCI-H23, in the assay with UACC-257, in the assay on HOP-62, in the assay with SF-539 and in the assay with TK-10 was > 100 µM (inactive) in each case. Besides, the GI50 in the assay with T47D was > 100 µM (inactive).
